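Step 1: Grow cells in 96-well plates. Step 2: Expose to compound for 48 hours at 5 concentrations. Step 3: Interpolate endpoints linearly; if unreached, use highest concentration. TGI marks complete inhibition of growth.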
Assays:
Experiment in all cases: NCI-60 cell line screen, 48 h
[1] = test system: SF-295 CNS
[2] = test system: CCRF-CEM leukemia
[3] = test system: M14 melanoma
[4] = test system: 786-0 renal
[5] = test system: HL-60(TB) leukemia
[6] = test system: T-47D breast
[7] = test system: NCI-H23 lung
[8] = test system: COLO 205 colon
[9] = test system: OVCAR-8 ovarian
[10] = test system: TK-10 renal
[11] = test system: MALME-3M melanoma
[12] = test system: SN12C renal
[13] = test system: K-562 leukemia
[14] = test system: SK-MEL-28 melanoma
[15] = test system: IGROV1 ovarian
[16] = test system: U251 CNS
[17] = test system: RPMI-8226 leukemia
[18] = test system: LOX IMVI melanoma
[19] = test system: NCI-H460 lung

SMILES | TGI [1] [µM] | TGI [2] [µM] | TGI [3] [µM] | TGI [4] [µM] | TGI [5] [µM] | TGI [6] [µM] | TGI [7] [µM] | TGI [8] [µM] | TGI [9] [µM] | TGI [10] [µM] | TGI [11] [µM] | TGI [12] [µM] | TGI [13] [µM] | TGI [14] [µM] | TGI [15] [µM] | TGI [16] [µM] | TGI [17] [µM] | TGI [18] [µM] | TGI [19] [µM]
CC/C(N)=N\NC(=O)OC(C)(C)C | > 100 | > 100 | > 100 | > 100 | > 100 | > 100 | > 100 | > 100 | > 100 | > 100 | > 100 | > 100 | > 100 | > 100 | > 100 | > 100 | > 100 | > 100 | 
CN(C)/C=C/C=C(/C=N/S(=O)(=O)C(F)(F)F)C1C=CN(S(=O)(=O)C(F)(F)F)C=C1 | > 100 | 79.9 | > 100 | > 100 | 46.4 | 75 | 56.6 | 32.6 | > 100 | > 100 | 82.7 | > 100 | > 100 | > 100 | > 100 | > 100 | > 100 | > 100 | > 100
O=C(Nc1ccc2ccccc2c1)c1cc2cc(CCl)ccc2oc1=O | > 100 | > 100 | > 100 | > 100 | > 100 | > 100 | > 100 | > 100 | > 100 | > 100 | > 100 | > 100 | > 100 | > 100 | > 100 | > 100 | > 100 | > 100 | > 100
Cc1ccc(/C=C2\N=C(N3CCCC(CO)C3)NC2=O)cc1 (stereo not drawn) | > 100 | > 100 | > 100 | > 100 | > 100 | > 100 | > 100 | > 100 | > 100 | > 100 | > 100 | > 100 | > 100 | > 100 | > 100 | > 100 | > 100 | > 100 | 
COc1cc(/C=N/NC2=NCCN2)ccc1O | > 100 | > 100 | > 100 | > 100 | > 100 | > 100 | > 100 | > 100 | > 100 | > 100 | > 100 | > 100 | > 100 | > 100 | > 100 | > 100 | > 100 | > 100 | > 100
O=[N+]([O-])/C(C(Cl)=C(Cl)Cl)=C(/Nc1ccccc1)Sc1ccccc1 | 47.5 | 36.6 | 36.5 | 46.5 | 42.4 | 59.8 | 36.2 | 34.8 | 33.6 | 59.8 | 31.8 | 97.5 | 41.6 | 36 | 48.1 | 27.7 | 66.1 | 30.7 | 41.6
O=C1C=C(N2CCN(CCOCCO)CC2)C(=O)c2c(O)ccc(O)c21 | 27.8 | 14.8 | 3.1 | 21.7 | > 29.2 | 18.4 | 4.67 | 2.86 | 17.9 | 22.7 | 2.91 | 14.8 | > 44.6 | 32.7 | 9.9 | 15.9 | > 100 | 6.62 | 21.4
O=c1cc(N2CCCC2)[nH]c(=O)n1-c1ccc(Cl)cc1 | > 100 | > 100 | > 100 | > 100 | > 100 | > 100 | > 100 | > 100 | > 100 | > 100 | > 100 | > 100 | > 100 | > 100 | > 100 | > 100 | > 100 | > 100 | > 100
Cc1ccc2c(c1C)C(=O)/C(=C/c1cccc(C)c1C(=O)O)C2 | > 100 | > 100 | > 100 | > 100 | > 100 | > 100 | > 100 | > 100 | > 100 | > 100 | > 100 | > 100 | > 100 | > 100 | > 100 | > 100 | > 100 | > 90.7 | > 100
O=C1c2cc([N+](=O)[O-])sc2C(=O)c2c([N+](=O)[O-])csc21 | 2.32 | 0.389 | 1.26 | 1.66 | 0.112 | 4.09 | 2.05 | 3.26 | 3.04 | 3 | 0.753 | 1.09 | 0.399 | 1.92 | 1.4 | 1.01 | 0.934 | 0.269 | 3.5
Cc1c(O)c(=O)ccn1CCc1ccc(O)cc1 | > 100 | 42 | 53 | 27.8 | 81.3 | > 100 | > 100 | > 100 | > 100 | > 100 | 65.8 |  | > 100 | > 100 |  | > 100 | 45.4 | 53.9 | 52.9
O=C1CC(c2ccccc2)S(=O)c2ccccc2N1 (stereo not drawn) |  | > 100 | > 100 | > 100 | > 100 | > 100 | > 100 | > 100 | > 100 | > 100 | > 100 | > 100 | > 100 | > 100 | > 100 | > 100 | > 100 | > 100 | > 100

Source: PubChem BioAssay (NCI)
